Measurements as given in ChEMBL document CHEMBL1147761, “Novel 1,3-dipropyl-8-(1-heteroarylmethyl-1H-pyrazol-4-yl)-xanthine derivatives as high affinity and selective A2B adenosine receptor antagonists” (Bioorg Med Chem Lett, 2006).

How the values were obtained:
Adenosine receptor A2a = Adenosine receptor A2a (Homo sapiens, UniProt P29274); test: Displacement of [3H]ZM-241385 from Adenosine A2A receptor expressed in HEK cells; type: cell-based, HEK293
Adenosine receptor A1 = target: T1, Adenosine receptor A1 (Homo sapiens, UniProt P30542); test: Displacement of [3H]CPX from Adenosine A1 receptor expressed in CHO cells; type: cell-based
T1 sequence (P30542 whole entry): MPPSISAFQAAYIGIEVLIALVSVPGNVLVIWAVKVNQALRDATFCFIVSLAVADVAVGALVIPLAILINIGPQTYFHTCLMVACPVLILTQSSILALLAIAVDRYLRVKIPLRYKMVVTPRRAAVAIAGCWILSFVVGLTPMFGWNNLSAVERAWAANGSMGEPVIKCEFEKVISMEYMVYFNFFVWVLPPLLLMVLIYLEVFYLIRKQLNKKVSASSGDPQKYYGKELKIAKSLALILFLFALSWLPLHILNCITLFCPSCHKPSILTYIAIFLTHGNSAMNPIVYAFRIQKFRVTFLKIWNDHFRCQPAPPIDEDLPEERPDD

[1] = target: Adenosine A2 receptor (Homo sapiens) (UniProt P29275+P29274); test: Selectivity of adenosine A2A receptor over adenosine A2B receptor; type: protein assay
Chain of Adenosine A2 receptor (Homo sapiens) (P29274 whole entry, looked up, one chain of several): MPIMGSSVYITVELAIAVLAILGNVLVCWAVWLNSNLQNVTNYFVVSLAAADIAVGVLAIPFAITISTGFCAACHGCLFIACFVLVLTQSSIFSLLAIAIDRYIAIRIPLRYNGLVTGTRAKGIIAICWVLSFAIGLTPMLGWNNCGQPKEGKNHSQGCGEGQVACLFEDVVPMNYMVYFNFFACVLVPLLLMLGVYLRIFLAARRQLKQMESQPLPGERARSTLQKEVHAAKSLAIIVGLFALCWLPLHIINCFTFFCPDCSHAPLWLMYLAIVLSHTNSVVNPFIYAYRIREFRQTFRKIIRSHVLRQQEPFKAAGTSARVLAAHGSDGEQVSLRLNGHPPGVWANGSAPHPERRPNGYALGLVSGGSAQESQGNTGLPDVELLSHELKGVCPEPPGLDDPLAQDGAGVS

[2] = target: Adenosine receptors; A2b & A3 (Homo sapiens) (UniProt P29275+P0DMS8); test: Selectivity of adenosine A3 receptor over adenosine A2B receptor; type: protein assay
[3] = target: Adenosine receptors; A1 & A2b (Homo sapiens) (UniProt P30542+P29275); test: Selectivity of adenosine A1 receptor over adenosine A2B receptor; type: protein assay
Adenosine receptor A3 = target: T2, Adenosine receptor A3 (Homo sapiens, UniProt P0DMS8); test: Displacement of [125I]AB-MECA from Adenosine A3 receptor expressed in CHO cells; type: cell-based
T2 sequence (P0DMS8 whole entry): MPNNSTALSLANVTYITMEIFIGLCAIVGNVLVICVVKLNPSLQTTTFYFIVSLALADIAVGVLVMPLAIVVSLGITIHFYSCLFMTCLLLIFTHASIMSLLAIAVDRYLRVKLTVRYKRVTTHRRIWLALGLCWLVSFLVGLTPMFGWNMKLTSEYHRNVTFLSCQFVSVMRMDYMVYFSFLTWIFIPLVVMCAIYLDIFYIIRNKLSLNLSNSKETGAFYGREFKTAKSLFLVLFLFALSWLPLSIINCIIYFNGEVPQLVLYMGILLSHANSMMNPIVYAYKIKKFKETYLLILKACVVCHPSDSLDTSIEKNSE

Adenosine receptor A2b = target: T3, Adenosine receptor A2b (Homo sapiens, UniProt P29275); test: Displacement of [3H]ZM-241385 from Adenosine A2B receptor expressed in HEK cells; type: cell-based, HEK293
T3 sequence (P29275 whole entry): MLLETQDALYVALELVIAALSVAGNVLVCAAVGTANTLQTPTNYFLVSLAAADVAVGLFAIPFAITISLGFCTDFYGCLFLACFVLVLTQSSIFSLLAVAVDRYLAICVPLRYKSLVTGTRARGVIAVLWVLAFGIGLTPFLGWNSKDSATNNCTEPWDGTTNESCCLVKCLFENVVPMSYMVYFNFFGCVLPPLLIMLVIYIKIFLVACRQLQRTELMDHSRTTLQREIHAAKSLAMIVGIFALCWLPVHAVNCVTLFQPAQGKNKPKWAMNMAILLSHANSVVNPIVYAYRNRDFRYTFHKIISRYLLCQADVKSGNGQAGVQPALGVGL

[4] = Oral bioavailability in rat administered at 1 mg/kg; type: ADME, organism-based; settings: in vivo
[5] = Half life in rat administered at 1 mg/kg; type: ADME, organism-based; set-up: dose 1 mg/kg; settings: in vivo
[6] = AUC in rat administered at 1 mg/kg; type: ADME, organism-based; set-up: dose 1 mg/kg; settings: plasma

Chain of Adenosine receptor A2a (P29274 whole entry): as the sequence (P29274 whole entry, looked up, one chain of several) above

Ki (Adenosine receptor A2a) [nM]	Ki (Adenosine receptor A1) [nM]	Ratio Ki [1]	Ratio Ki [2]	Ratio Ki [3]	Ki (Adenosine receptor A3) [nM]	Ki (Adenosine receptor A2b) [nM]	bioavailability [4] [%]	half-life [5] [h]	AUC [6] [ng·h/mL]	SMILES
> 5000	530	> 67	4	7	340	74	–	–	–	CCCn1c(=O)c2nc(-c3cnn(Cc4nc(-c5ccccc5C(F)(F)F)no4)c3)[nH]c2n(CCC)c1=O
2500	2500	130	25	130	490	19	–	–	–	CCCn1c(=O)c2nc(-c3cnn(Cc4nc(-c5ccccc5Cl)no4)c3)[nH]c2n(CCC)c1=O
> 5000	4600	> 30	27	28	4400	163	–	–	–	CCCn1c(=O)c2nc(-c3cnn(Cc4cc(-c5cccc(Cl)c5)on4)c3)[nH]c2n(CCC)c1=O
> 5000	> 6000	> 238	61	> 285	1300	21	–	–	–	CCCn1c(=O)c2nc(-c3cnn(Cc4noc(-c5ccc(C(F)(F)F)cc5)n4)c3)[nH]c2n(CCC)c1=O
> 5000	3500	> 38	> 38	27	> 5000	131	–	–	–	CCCn1c(=O)c2nc(-c3cnn(Cc4cc(-c5cccc(OC)c5)on4)c3)[nH]c2n(CCC)c1=O
> 5000	3000	> 37	22	22	3000	134	–	–	–	CCCn1c(=O)c2nc(-c3cnn(Cc4noc(-c5cccc(Cl)c5)n4)c3)[nH]c2n(CCC)c1=O
1800	1000	85	30	47	630	21	–	–	–	CCCn1c(=O)c2[nH]c(-c3cnn(Cc4noc(-c5ccccc5)n4)c3)nc2n(CCC)c1=O
> 5000	2900	> 128	> 213	74	> 8300	39	–	–	–	CCCn1c(=O)c2nc(-c3cnn(Cc4noc(-c5ccc(Cl)cc5)n4)c3)[nH]c2n(CCC)c1=O
> 5000	3500	> 119	22	83	960	42	–	–	–	CCCn1c(=O)c2nc(-c3cnn(Cc4nc(-c5cccc(C(F)(F)F)c5)no4)c3)[nH]c2n(CCC)c1=O
> 5000	3000	> 47	14	28	1500	106	–	–	–	CCCn1c(=O)c2nc(-c3cnn(Cc4nc(-c5ccc(OC)cc5)no4)c3)[nH]c2n(CCC)c1=O
1800	740	85	19	35	400	21	22	1.5	2330	CCCn1c(=O)c2nc(-c3cnn(Cc4nc(-c5ccc(Cl)cc5)no4)c3)[nH]c2n(CCC)c1=O
1100	370	1100	480	370	480	1	–	–	–	CCCn1c(=O)c2nc(-c3cnn(Cc4nc(-c5ccccc5)no4)c3)[nH]c2n(CCC)c1=O
420	1500	30	128	107	1800	14	–	–	–	CCCn1c(=O)c2[nH]c(-c3cnn(Cc4cc(-c5ccccc5)on4)c3)nc2n(CCC)c1=O
> 5000	3700	> 41	34	30	4200	121	–	–	–	CCCn1c(=O)c2nc(-c3cnn(Cc4cc(-c5ccccc5C(F)(F)F)on4)c3)[nH]c2n(CCC)c1=O
